From patent publication US9084765B2, “Use of amisulpride as an anti-emetic” (Acacia Pharma Limited, priority 2010, dated 2015)
Entries after “also recorded” stand apart in the source; their conditions may differ.

Legend:
[1] = test system: ferrets challenged with apomorphine; assay: Apomorphine-induced emesis in ferrets; assay type: in vivo, ferret; conditions: 2 hour observation
Procedure: (§1) Amisulpride, white powder, was dissolved in dimethylsulfoxide and then diluted in physiological saline. For vehicle control, physiological saline was used for s,c, administration (apomorphine experiments) and 8.3% DMSO in physiological saline was used for i.v. administration (morphine, cisplatin). Apomorphine hydrochloride hemihydrates, white powder, was dissolved in physiological saline. The method used to test antiemetic activity preclinically follows that described by Gardner et al. (Brit. J. Pharmacol., 116: 3158-3163, 1995) and uses ferrets. Sixty minutes before administration of the test substance, ferrets are placed in individual stainless steel cages (40×50×34 cm) with a grid floor. Then, the animals are challenged with apomorphine (0.25 mg/kg s.c.), morphine (0.4 mg/kg i.p.) or cisplatin (10 mg/kg i.p.) and immediately observed over at least a 2-hour period. Parameters recorded include: number of ferrets showing retches and vomits; latency to first retching; latency to first vomiting; number of retches; vomiting (number of vomits); number of emesis periods and mean duration of emesis periods. Retching is defined as a rhythmic respiratory movement against a closed glottis, while vomiting is defined as a forced expulsion of upper gastrointestinal contents. […]

[2] = test system: ferrets challenged with morphine; assay: Morphine-induced emesis in ferrets; assay type: in vivo, ferret
Procedure: as §1, with “Morphine hydrochloride,” for “Apomorphine hydrochloride hemihydrates,”

[3] = test system: ferrets challenged with cisplatin; assay: Cisplatin-induced emesis in ferrets; assay type: in vivo, ferret
Procedure: Amisulpride, white powder, was dissolved in dimethylsulfoxide and then diluted in physiological saline. For vehicle control, physiological saline was used for s,c, administration (apomorphine experiments) and 8.3% DMSO in physiological saline was used for i.v. administration (morphine, cisplatin). […] Cisplatinum II diamine dichloride, yellow powder, was dispersed in 0.2% hydroxymethylcellulose in physiological saline. The method used to test antiemetic activity preclinically follows that described by Gardner et al. (Brit. J. Pharmacol., 116: 3158-3163, 1995) and uses ferrets. Sixty minutes before administration of the test substance, ferrets are placed in individual stainless steel cages (40×50×34 cm) with a grid floor. Then, the animals are challenged with apomorphine (0.25 mg/kg s.c.), morphine (0.4 mg/kg i.p.) or cisplatin (10 mg/kg i.p.) and immediately observed over at least a 2-hour period. Parameters recorded include: number of ferrets showing retches and vomits; latency to first retching; latency to first vomiting; number of retches; vomiting (number of vomits); number of emesis periods and mean duration of emesis periods. Retching is defined as a rhythmic respiratory movement against a closed glottis, while vomiting is defined as a forced expulsion of upper gastrointestinal contents. […]

[4] = reported in the UKPAR (Special Warnings and Precautions for Use); cited from earlier work
[5] = test system: apomorphine-induced vomiting in the dog; conditions: reported in U.S. Pat. No. 4,294,828; cited from earlier work

## CCN1CCCC1CNC(=O)c1cc(S(=O)(=O)CC)c(N)cc1OC (centres unmarked) [Amisulpride]
[1]; amisulpride 10 μg/kg s.c.
  effect on apomorphine emesis: totally inhibited
[1]; amisulpride 100 μg/kg s.c.
  effect on apomorphine emesis: totally inhibited
[2]; amisulpride 3 mg/kg i.v. before morphine 0.4 mg/kg i.p.
  incidence of vomits: abolished
[2]; i.v. 5 minutes before morphine, 2 hour observation, versus vehicle control
  effect on emetic effects induced by morphine: reduces the emetic effects induced by morphine, in dose-dependent manner
[3]; amisulpride 0.6 mg/kg (one animal excluded) and 2 mg/kg versus droperidol 3 mg/kg given 5 minutes before cisplatin
  efficacy compared with droperidol: better than droperidol at 3 mg/kg; also recorded: more effective than droperidol at 3 mg/kg
[3]; i.v. before cisplatin, 72 hour period, versus vehicle control
  effect on emetic effects of cisplatin: reduces the emetic effects of cisplatin, in dose-dependent manner
[4]
  prolongation of the QT interval: induces a dose dependent prolongation of the QT interval
[5]
  apomorphine-induced vomiting: inhibit apomorphine-induced vomiting in the dog
